We go through seven molecules from publication PMC8921064 (Archives of Toxicology, 2022).

Structures are written as SMILES. Several values for one entry are separate records, joined by “and”; a condition that tells them apart may be missing. Identical values can stand only once.

Data set [1] relates to rat liver microsomes (RLM). Nature of the data set: Rat liver microsomal incubation, metabolite formation quantified by UPLC. The following applies: RLM. Here is the method:
(§1) The incubation mixtures were prepared and incubated in glass vials to avoid plastic binding of the substrates. The glass vials were capped to prevent substrate loss due to volatility. After preincubation of the incubation mixture at 37 °C for 1 min, the enzymatic reaction was initiated by adding microsomes to the incubation mixture which was subsequently incubated at 37 °C for 20 min. The reaction was terminated by adding 100 µl ice-cold acetonitrile followed by vortexing. After 5 min centrifugation at 5000 rpm (4000 × g), 4 °C, the supernatant was collected for ultraperformance liquid chromatography (UPLC) analysis. […] Therefore, a diisopropylether (DIPE) extraction of the metabolites was performed after the reaction was stopped by the addition of 20 µl 10% HClO4. To this end, the incubation mixture (total volume of 220 µl) was extracted three times with 1 ml DIPE. Each time, the upper organic layer was collected and the DIPE was subsequently evaporated from the combined organic fractions with a gentle stream of nitrogen. The residues were dissolved in 100 µl methanol and analyzed by UPLC.
(§2) The metabolites formed were analyzed and quantified using an Acquity UPLC system equipped with a photodiode array (PDA) detector (Waters, Milford, MA). The metabolites and their parent compound were separated on a reverse phase Acquity UPLC® BEH C18 column ([…], 1.7 µm, Waters, Milford, MA) and detected at wavelengths ranging from 190 to 400 nm. Eluent A was nano-pure water containing 0.1% trifluoroacetic acid (v/v), and eluent B was acetonitrile containing 0.1% trifluoroacetic acid (v/v). The gradient elution started from 90% A and 10% B applied from 0.0 min to 0.5 min, which was changed to 0% A and 100% B from 0.5 to 15.5 min and then kept at 0% A and 100% B from 15.5 min to 18.5 min, changed back to 90% A and 10% B from 18.5 to 18.6 min and then maintained at the starting conditions from 18.6 min until 22 min. The total run time was 22 min using a flow rate of 0.6 ml/min. The temperature of the column was set at 40 °C and that of the autosampler at 10 °C during the UPLC analysis. The injection volume was 3.5 µl. Metabolites were quantified using their peak area at the wavelength specified in Table 1, using calibration curves of available reference compounds. Metabolites were identified by comparing their retention time (RT) and UV spectrum to those of reference chemicals on UPLC. When reference chemicals were not available, metabolite identification by gas chromatography-triple quadrupole mass spectrometry (GC–MS/MS) was performed. The minor metabolites were identified by elution time and mass spectra both on UPLC and GC–MS/MS, and by comparison with available elution and spectral information from the literature.
(§3) The metabolite concentrations in the microsomal incubation mixtures as quantified by UPLC were used to calculate the rate of the enzymatic conversions in pmol/min/mg microsomal protein. The kinetic parameters KM and Vmax were obtained using a nonlinear regression curve fit applying the Michaelis Menten equation in GraphPad Prism 5 (San Diego, USA). To compare the catalytic efficiency of formation of the different metabolites the intrinsic clearance (Clint) was calculated as Vmax divided by KM.

For data set [2], the system named is human liver microsomes (HLM). Nature of the data set: Human liver microsomal incubation, metabolite formation quantified by UPLC. Conditions: HLM. The protocol:
as §1, §2, §3

For data set [3], the system named is Salmonella typhimurium TA100. Briefly: Reverse mutation assay (Ames test), TA100. Conditions: positive control, 650 µg/plate MMS; mean ± SD of 3 plates. Here is the method: (§4) Six concentrations of each compound were tested in triplicate in the absence and presence of 5% (v/v) S9-mix prepared from the livers of Aroclor 1254 treated Sprague–Dawley rats. The S9-mix contained 4 mM NADP, 5.8 mM glucose-6-phosphate, 0.1 M sodium phosphate pH 7.4, 8 mM MgCl2, 33 mM KCl and 5% S9 homogenate. Fresh bacterial cultures were prepared overnight to reach 10^9 cells/ml. The following solutions were pre-incubated in a rotating incubator at 70 rpm and 37 °C, and contained either 0.5 ml S9-mix (in case of S9 presence) or 0.5 ml 0.1 M potassium phosphate pH 7.4 (in case of S9 absence), 0.1 ml of a fresh bacterial culture (10^9 cells/ml) of TA98 or TA100, and 10–100 µg test compound. Top agar was melted and heated to 45 °C. After preincubation, the substrate solutions were added to 3 ml of the molten top agar and mixed by vortexing and the top agar mixture was poured onto a minimal glucose agar plate. After solidification of the top agar, the plates were incubated at 37 °C for 48 h. The number of revertant colonies per plate was automatically counted with the Instem Sorcerer Colony Counter (Staffordshire, UK). In the absence of S9-mix, 2-nitrofluorene (NF) and methylmethanesulfonate (MMS) were tested as positive controls for incubations with TA98 and TA100, respectively. In the presence of S9-mix, 2-aminoanthracene (2AA) was tested as a positive control in both TA98 and TA100. DMSO was tested as a solvent control in both tester strains.

Data set [4] relates to Salmonella typhimurium TA98. Nature of the data set: Reverse mutation assay (Ames test), TA98. The following applies: positive control, 10 µg/plate NF; mean ± SD of 3 plates. The protocol: as §4, with “and 10–100 µg test compound.” left out
[5] abbreviates: 0 to 600 μM, 20 min, NM = no metabolism.
Setting [6] is: substrate 1-N-hexylphenanthrene.
The mark [7] stands for this setting: substrate 10-Methyl-9-ethylphenanthrene.

In the case of `CCCCCCCCCCCCc1cccc2c1ccc1ccccc12` [1-N-dodecylphenanthrene, 1-n-dodecylphenanthrene], the “Metabolic conversion (metabolites formed)” value in data set [1] (setting [5]) and in data set [2] (setting [5]) was “No metabolic conversion was observed” each time.

Regarding `CCCCCCc1cccc2c1ccc1ccccc12` [1-N-hexylphenanthrene, 1-n-Hexylphenanthrene], in data set [1] (setting [6]), the “Vmax, formation of 1-Hydroxyhexyl-phenanthrene RT = 8.45 min” value was 103.4 ± 18.1 pmol/min/mg microsomal protein; the “Vmax, formation of 1-Hydroxyhexyl-phenanthrene RT = 8.58 min” value is reported as 54.8 ± 5.2 pmol/min/mg microsomal protein; the “Vmax, formation of 1-Hydroxyhexyl-phenanthrene RT = 8.82 min” value is recorded as 25.6 ± 1.8 pmol/min/mg microsomal protein; the “Vmax, formation of 1-Hydroxyhexyl-phenanthrene RT = 9.13 min” value is 11.7 ± 0.9 pmol/min/mg microsomal protein. In addition, in data set [2] (setting [6]), the “Vmax, formation of 1-Hydroxyhexyl-phenanthrene RT = 8.45 min” value is 48.3 ± 6.1 pmol/min/mg microsomal protein and the “Vmax, formation of 1-Hydroxyhexyl-phenanthrene RT = 8.82 min” value is on record as 44.2 ± 4.8 pmol/min/mg microsomal protein.

Turning to `CCc1ccc2c(ccc3ccccc32)c1` [2-Ethylphenanthrene], in data set [1] (substrate 2-Ethylphenanthrene), the “Vmax, formation of 2-(1-Hydroxyethyl)-phenanthrene RT = 6.21 min” value is recorded as 3149.0 ± 266.1 pmol/min/mg microsomal protein; the “Vmax, formation of 2-Ethylphenanthrol RT = 7.57 min” value is listed as 16.5 ± 3.1 pmol/min/mg microsomal protein; the “Vmax, formation of 2-Ethylphenanthrol RT = 7.74 min” value was 16.6 ± 2.7 pmol/min/mg microsomal protein; the “Vmax, formation of 2-Ethylphenanthrol RT = 7.89 min” value is 11.8 ± 2.4 pmol/min/mg microsomal protein. Further, in data set [1] (substrate 2-Ethylphenanthrene), the “Vmax, formation of Dihydro-2-ethylphenanthrene-diol RT = 4.6 min” value was 33.9 ± 11.8 pmol/min/mg microsomal protein; the “Vmax, formation of Dihydro-2-ethylphenanthrene-diol RT = 5.29 min” value is recorded as 42.9 ± 3.5 pmol/min/mg microsomal protein; the “Vmax, formation of Unknown metabolite RT = 9.38 min” value was 238.0 ± 23.9 pmol/min/mg microsomal protein. Further, in data set [2] (substrate 2-Ethylphenanthrene), the “Vmax, formation of 2-(1-Hydroxyethyl)-phenanthrene RT = 6.21 min” value was 468.8 ± 50.3 pmol/min/mg microsomal protein; the “Vmax, formation of Dihydro-2-ethylphenanthrene-diol RT = 5.16 min” value is 18.4 ± 3.2 pmol/min/mg microsomal protein; the “Vmax, formation of Dihydro-2-ethylphenanthrene-diol RT = 5.29 min” value is on record as 22.1 ± 3.0 pmol/min/mg microsomal protein; the “Vmax, formation of Unknown metabolite RT = 9.38 min” value is 37.2 ± 6.5 pmol/min/mg microsomal protein.

Consider `CCc1cc2ccccc2c2ccccc12` [9-Ethylphenanthrene], for which, in data set [1] (substrate 9-Ethylphenanthrene), the “Vmax, formation of 9-(1-Hydroxyethyl)-phenanthrene RT = 6.20 min” value is 1206 ± 47.9 pmol/min/mg microsomal protein; the “Vmax, formation of 9-(2-Hydroxyethyl)-phenanthrene RT = 6.00 min” value is 37.0 ± 2.26 pmol/min/mg microsomal protein; the “Vmax, formation of 9-Ethylphenanthrol RT = 7.42 min” value is 29.7 ± 3.1 pmol/min/mg microsomal protein; the “Vmax, formation of 9-Ethylphenanthrol RT = 7.58 min” value is recorded as 56.6 ± 1.8 pmol/min/mg microsomal protein. Besides, in data set [1] (substrate 9-Ethylphenanthrene), the “Vmax, formation of 9-Ethylphenanthrol RT = 7.93 min” value is reported as 22.8 ± 1.8 pmol/min/mg microsomal protein; the “Vmax, formation of Dihydro-9-ethylphenanthrene-diol RT = 3.81 min” value is recorded as 12.0 ± 2.1 pmol/min/mg microsomal protein; the “Vmax, formation of Unknown metabolite RT = 9.35 min” value is 52.7 ± 6.2 pmol/min/mg microsomal protein. Moreover, in data set [2] (substrate 9-Ethylphenanthrene), the “Vmax, formation of 9-(1-Hydroxyethyl)-phenanthrene RT = 6.20 min” value is 267.7 ± 17.4 pmol/min/mg microsomal protein; the “Vmax, formation of 9-(2-Hydroxyethyl)-phenanthrene RT = 6.00 min” value is 61.4 ± 3.3 pmol/min/mg microsomal protein; the “Vmax, formation of 9-Ethylphenanthrol RT = 7.42 min” value is reported as 12.8 ± 1.1 pmol/min/mg microsomal protein; the “Vmax, formation of 9-Ethylphenanthrol RT = 7.58 min” value is reported as 29.1 ± 2.8 pmol/min/mg microsomal protein. Also, in data set [2] (substrate 9-Ethylphenanthrene), the “Vmax, formation of Dihydro-9-ethylphenanthrene-diol RT = 3.81 min” value was 15.2 ± 0.8 pmol/min/mg microsomal protein and the “Vmax, formation of Dihydro-9-ethylphenanthrene-diol RT = 3.88 min” value is reported as 23.5 ± 1.4 pmol/min/mg microsomal protein.

Turning to `CCc1c(C)c2ccccc2c2ccccc12` [10-Methyl-9-ethylphenanthrene], in data set [1] (setting [7]), the “Vmax, formation of 9-(1-Hydroxyethyl)-10-methylphenanthrene RT = 6.65 min” value is given as 630.2 ± 81.4 pmol/min/mg microsomal protein; the “Vmax, formation of 9-(2-Hydroxyethyl)-10-methylphenanthrene RT = 6.5 min” value is 21.0 ± 3.1 pmol/min/mg microsomal protein; the “Vmax, formation of 9-Ethyl-10-(1-hydroxymethyl)-phenanthrene RT = 6.90 min” value is listed as 85.8 ± 11.6 pmol/min/mg microsomal protein; the “Vmax, formation of 9-Ethyl-10-methylphenanthrol RT = 7.82 min” value was 65.6 ± 9.8 pmol/min/mg microsomal protein. Also, in data set [1] (setting [7]), the “Vmax, formation of 9-Ethyl-10-methylphenanthrol RT = 8.3 min” value is reported as 29.4 ± 7.7 pmol/min/mg microsomal protein; the “Vmax, formation of Dihydro-10-methyl-9-ethylphenanthrene-diol RT = 4.29 min” value is 6.4 ± 2.7 pmol/min/mg microsomal protein; the “Vmax, formation of Dihydro-10-methyl-9-ethylphenanthrene-diol RT = 4.34 min” value was 8.09 ± 1.6 pmol/min/mg microsomal protein. Moreover, in data set [2] (setting [7]), the “Vmax, formation of 9-(1-Hydroxyethyl)-10-methylphenanthrene RT = 6.65 min” value was 187.1 ± 45.2 pmol/min/mg microsomal protein; the “Vmax, formation of 9-(2-Hydroxyethyl)-10-methylphenanthrene RT = 6.5 min” value is 12.9 ± 1.8 pmol/min/mg microsomal protein; the “Vmax, formation of 9-Ethyl-10-(1-hydroxymethyl)-phenanthrene RT = 6.90 min” value is on record as 85.9 ± 17.4 pmol/min/mg microsomal protein; the “Vmax, formation of Dihydro-10-methyl-9-ethylphenanthrene-diol RT = 4.29 min” value is reported as 7.2 ± 1.7 pmol/min/mg microsomal protein. The “Vmax, formation of Dihydro-10-methyl-9-ethylphenanthrene-diol RT = 4.34 min” value in data set [2] (setting [7]) is 10.5 ± 2.5 pmol/min/mg microsomal protein.

On to `COS(C)(=O)=O` [MMS, methylmethanesulfonate, reference compound], for which the “His + revertant colonies TA100 without S9-mix” value in data set [3] was 868±70 and 823±58 and 783±46.

For the molecule `O=[N+]([O-])c1ccc2c(c1)Cc1ccccc1-2` [NF, 2-nitrofluorene, reference compound], the “His + revertant colonies TA98 without S9-mix” value in data set [4] was determined as 1590±295.
